For data set [1] the following is noted: pH 7.4.
Method: The penetration rates of HPPs and their parent drugs through human skin were measured in vitro by modified Franz cells. The Franz cells have two chambers, the top sample chamber and the bottom receiving chamber. The human skin tissue (360-400 μm thick) that separates the top and the receiving chambers was isolated from the anterior or posterior thigh areas.
The compound tested (2 mL, 20% in 0.2 M phosphate buffer, pH. 7.4) were added to the sample chamber of a Franz cell. The receiving chamber contains 10 ml of 2% bovine serum albumin in saline which was stirred at 600 rpm. The cumulative amounts of the tested compounds penetrating the skin versus time were determined by high-performance liquid chromatography (HPLC) method.
The next data set in a line: Solubility in water. It is filed as physicochemical. Here is the method: 37.7 g (0.1 mol) of sodium 11,15-dihydroxy-9-oxoprost-13-en-1-oate was dissolved in 100 ml of acetonitrile. 26.1 g (0.1 mol) of 2-Bromo-N,N-diethylethylamine.HBr and 8.6 g of sodium bicarbonate were added into the reaction mixture. The mixture was stirred for overnight at RT. The solvents were evaporated off. 250 ml of ethyl acetate was added into the reaction mixture and the mixture was washed with water (3×100 ml). The organic solution was dried over anhydrous sodium sulfate. Sodium sulfate was removed by filtration. 6 g of acetic acid was added into the reaction mixture with stirring. Hexane (200 ml) was added. The solid product was collected by filtration. After drying, it yielded 42 g of the desired product (81.8%). Hygroscopic product; Solubility in water: 100 mg/ml; Elementary analysis: C28H51NO7; MW: 513.37. Calculated % C, 65.47; H, 10.01; N, 2.73; O, 21.80. Found % C, 65.42; H, 10.03; N, 2.70; O, 21.85.
43.7 g (0.1 mol) of 11,15-diacetoxy-9-oxoprosta-5,13-dien-1-oic acid was dissolved in 300 ml of chloroform. 20.6 g of N,N′-Dicyclohexylcarbodiimide was added into the reaction mixture. 11.7 g of N,N-diethylaminoethylamine was added into the reaction mixture. The mixture was stirred for 3 hours at RT. The solid was removed by filtration. The chloroform solution was washed with 5% NaHCO3 (2×100 ml) and water (3×100 ml). The organic solution was dried over anhydrous sodium sulfate. Sodium sulfate was removed by filtration. 6 g of acetic acid was added into the reaction mixture with stirring. Hexane (200 ml) was added. The solid product was collected by filtration. After drying, it yielded 45 g of the desired product (85.8%). Hygroscopic product; Solubility in water: 100 mg/ml; Elementary analysis: C34H59NO9S; MW: 657.90. Calculated % C, 62.07; H, 9.04; N, 2.13; O, 21.89; S, 4.87. Found % C, 62.02; H, 9.06; N, 2.11; O, 21.95; S, 4.86.
49.9 g (0.1 mol) of 9,11,15-triacetoxyprost-13-en-1-oic acid was dissolved in 300 ml of chloroform. 20.6 g of N,N′-Dicyclohexylcarbodiimide was added into the reaction mixture. 13.1 g of dimethylaminoethyl mercaptan was added into the reaction mixture. The mixture was stirred for 3 hours at RT. The solid was removed by filtration. The chloroform solution was washed with 5% NaHCO3 (2×100 ml) and water (3×100 ml). The organic solution was dried over anhydrous sodium sulfate. Sodium sulfate was removed by filtration. 6 g of acetic acid was added into the reaction mixture with stirring. Hexane (200 ml) was added. The solid product was collected by filtration. After drying, it yielded 45 g of the desired product (85.8%). Hygroscopic product; Solubility in water: 100 mg/ml; Elementary analysis: C32H53NO9; MW: […] Calculated % C, 64.51; H, 8.97; N, 2.35; O, 24.17. Found % C, 64.47; H, 8.99; N, 2.34; O, 24.20.
37.7 g (0.1 mol) of sodium 9,11,15-trihydroxyprosta-5,13-dien-1-oate was dissolved in 100 ml of acetonitrile. 39 g (0.15 mol) of 2-Bromo-N,N-diethylethylamine.HBr in ethyl acetate was added into the reaction mixture. The mixture was stirred for 3 h at RT. Then 8 g of sodium bicarbonate was added into the reaction mixture. The mixture is stirred for another 2 h at RT. The solvents were evaporated off. 250 ml of ethyl acetate was added into the reaction mixture and the mixture was washed with water (3×100 ml). The organic solution was dried over anhydrous sodium sulfate. Sodium sulfate was removed by filtration. 6 g of acetic acid was added into the reaction mixture with stirring. […] Calculated % C, 65.47; H, 10.01; N, 2.73; O, 21.80. […]

For data set [2] the following is noted: Milosovich et al., J. Pharm. Sci., 82, 227 (1993); cited from earlier work.

Each structure is given as a SMILES string.

Regarding `CC(=O)O.CCCCCC(C)(O)C=C[C@H]1C(O)CC(O)[C@@H]1CC=CCCCC(=O)OCCN(CC)CC` (stereo partly drawn) [N,N-diethylaminoethyl 9,11,15-trihydroxy-15-methylprosta-5,13-dien-1-oate.AcOH], the “In vitro penetration rate (apparent flux), prodrug compounds” value in data set [1] came out at 0.80 mg/cm^2/h. The same molecule had a Solubility in water in the data set “Solubility in water” of 100 mg/mL.

Consider `CN(C)CCCC(=O)O[C@H]1CC[C@H]2[C@@H]3CCC4=CC(=O)CC[C@]4(C)[C@H]3CC[C@]12C.Cl` [TSBH, testosteronyl-4-dimethylaminobutyrate.HCl], for which the “Diffusion through human skin, times faster than the parent drug (TS)” value in data set [2] is “about 60 times”.

The record behind these values is patent US11555014B2, “High penetration prodrug compositions of prostaglandins and related compounds” (Techfields Pharma Co., Ltd., priority 2006, dated 2023).
